Data published in patent publication US5292732A, “Pyrrolopyrazine derivatives” (Hoffmann-La Roche Inc., priority 1991, dated 1994).

Columns and labels:
[1] = molecular target: T1, MAO (substrate 5-HT) (Rattus norvegicus, UniProt P21396); assay: MAO inhibition in vitro, rat brain homogenate, substrate 14C-labelled serotonin (5-HT); format: biochemical; conditions: substrate 5-HT 2×10^-4 M, 37° C.
T1 construct: 20 μl of rat brain homogenate; from tissue; host or cells: rat brain homogenate
T1 sequence (P21396 1-526): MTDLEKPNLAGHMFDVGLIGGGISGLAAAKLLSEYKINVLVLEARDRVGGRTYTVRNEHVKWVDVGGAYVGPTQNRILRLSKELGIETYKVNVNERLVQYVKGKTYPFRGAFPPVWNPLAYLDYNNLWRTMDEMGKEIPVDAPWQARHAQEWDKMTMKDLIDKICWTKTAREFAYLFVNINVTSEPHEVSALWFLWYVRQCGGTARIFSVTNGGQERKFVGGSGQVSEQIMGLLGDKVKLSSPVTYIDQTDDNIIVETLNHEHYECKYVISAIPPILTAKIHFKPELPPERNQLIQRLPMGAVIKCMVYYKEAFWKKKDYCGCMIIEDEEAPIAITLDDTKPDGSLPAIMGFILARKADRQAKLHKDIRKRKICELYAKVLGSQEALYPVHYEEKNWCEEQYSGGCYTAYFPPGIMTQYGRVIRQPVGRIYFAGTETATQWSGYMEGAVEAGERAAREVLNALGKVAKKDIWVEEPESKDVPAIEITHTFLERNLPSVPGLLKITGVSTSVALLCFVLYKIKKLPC
Experimental: (§1) The MAO inhibiting activity of the compounds in accordance with the invention can be determined in vitro or ex vivo using standard methods. The preparations to be tested were investigated in the tests described hereinafter, which were based on the methods of R. J. Wurtmann and J. A. Axelrod [Biochem. Pharmac. 12, 1439-41 (1963).
(§2) Isolated rat brains are homogenized in 0.1 molar potassium phosphate buffer (pH 7.4) in the ratio 1:4 (weight/volume), the homogenate is diluted with the same buffer in the ratio 1:5 (volume/volume) and stored at -20° C. A mixture of the following composition was used for the incubation:
(§3) 100 μl of 1M phosphate buffer (pH 6.7);
(§4) 100 μl of solution of the substance to be tested in water or in 10% aqueous dimethyl sulphoxide;
(§5) 20 μl of rat brain homogenate; and as the substrate
(§6) 80 μl of ^14 C-labelled serotonin (5-HT) or ^14 C-labelled phenylethylamine (PEA), the radioactive concentration of which amounts to 100,000 decay per minute and which is used in a final concentration of 2×10^-4 M and, respectively, 2×10^-5 M.
(§7) A pre-incubation at 37° C. is effected for 30 minutes prior to the addition of the substrate. The incubation (in the presence of the substrate) is likewise effected at 37° C. and lasts for 10 minutes. The reaction is stopped by the addition of 200 μl of 2N hydrochloric acid.
(§8) In order to extract the desaminated product, the mixture is shaken for 10 minutes with 5 ml of diethyl ether or with 5 ml of n-heptane depending on whether 5-HT or PEA is used as the substrate, whereupon the mixture is centrifuged, the aqueous phase is frozen in a dry-ice bath, the organic phase is transferred into a counting glass and the radioactive concentration is determined in a β-counter.
(§9) The activity of the MAO in comparison to the control homogenates (without substance to be tested) is obtained on the basis of the β-values and the IC50 is defined as that concentration of a substance to be tested which reduces the activity of the MAO upon the substrate 5-HT or PEA by 50%.

[2] = molecular target: T2, MAO (substrate PEA) (Rattus norvegicus, UniProt P19643); assay: MAO inhibition in vitro, rat brain homogenate, substrate 14C-labelled phenylethylamine (PEA); format: biochemical; conditions: substrate PEA 2×10^-5 M, 37° C.
T2 construct: 20 μl of rat brain homogenate; from tissue; host or cells: rat brain homogenate
T2 sequence (P19643 1-520): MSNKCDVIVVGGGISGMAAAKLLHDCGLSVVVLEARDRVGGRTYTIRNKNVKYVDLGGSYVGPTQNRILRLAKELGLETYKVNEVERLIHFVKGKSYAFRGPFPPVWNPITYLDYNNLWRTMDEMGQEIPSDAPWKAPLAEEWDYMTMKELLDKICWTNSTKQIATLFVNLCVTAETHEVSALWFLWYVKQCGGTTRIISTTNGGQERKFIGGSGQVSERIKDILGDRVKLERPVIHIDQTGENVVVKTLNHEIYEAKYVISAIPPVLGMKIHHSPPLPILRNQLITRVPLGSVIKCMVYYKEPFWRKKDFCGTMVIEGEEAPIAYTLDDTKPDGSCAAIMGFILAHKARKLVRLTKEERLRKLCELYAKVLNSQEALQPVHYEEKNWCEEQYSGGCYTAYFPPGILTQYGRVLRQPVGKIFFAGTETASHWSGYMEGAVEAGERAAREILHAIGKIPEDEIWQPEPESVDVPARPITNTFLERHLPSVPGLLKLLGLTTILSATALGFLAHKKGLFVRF
Experimental: as §1, §2, §3, §4, §5, §6, §7, §8, §9

[3] = test system: MAO in the liver (substrate 5-HT); assay: MAO inhibition ex vivo in liver of rats, substrate 5-HT; design: species or system male albino rats (Fu-SPF); conditions: rat, 100 μmol/kg orally, 2 hrs., given in percentage of the control values
Experimental: as §1
(§10) The compounds to be tested are investigated for the inhibition of MAO in the brain and liver of male albino rats (Fu-SPF, 100-140 g. The test compounds are administered orally as a solution or suspension in water in a dosage of 100 μmol per kilogram body weight. After 2 hrs. the animals are narcotized and decapitated. The brain (without cerebellum) and a portion of the liver are dissected out and submitted analogously to the above-described procedure for the determination of the MAO inhibiting activity, whereby the amount of enzyme used is 20 μl of a 1:20 homogenate in the case of brain and 20 μl of a 1:80 homogenate in the case of liver. The activity of the compounds is determined from a comparison of the β-values with the values for control animals treated with vehicle and is given in percentage of the control values.

[4] = test system: MAO in the brain (substrate 5-HT); assay: MAO inhibition ex vivo in brain of rats, substrate 5-HT; design: species or system male albino rats (Fu-SPF); conditions: rat, 100 μmol/kg orally, 2 hrs., given in percentage of the control values
Experimental: as §1, §10

[5] = test system: MAO in the liver (substrate PEA); assay: MAO inhibition ex vivo in liver of rats, substrate PEA; design: species or system male albino rats (Fu-SPF); conditions: rat, 100 μmol/kg orally, 2 hrs., given in percentage of the control values
Experimental: as §1, §10

[6] = test system: MAO in the brain (substrate PEA); assay: MAO inhibition ex vivo in brain of rats, substrate PEA; design: species or system male albino rats (Fu-SPF); conditions: rat, 100 μmol/kg orally, 2 hrs., given in percentage of the control values
Experimental: as §1, §10

Row | Compound | IC50 [1] [µM] | IC50 [2] [µM] | MAO inhibition, Liver, 5HT [3] [%] | Remaining brain MAO activity, 5-HT (% of control) [4] [%] | Remaining liver MAO activity (PEA), % of control [5] [%] | Remaining brain MAO activity (PEA), % of control [6] [%]
1 | CC1=NCCn2c1cc1c2-c2ccc(C3CCCCC3)cc2CC1 [3-cyclohexyl-5,6,10,11-tetrahydro-8-methylbenzo[g]pyrazino[1,2-a]indole] | 0.002 | 0.16 | – | – | – | –
2 | CC1=NCCn2c1ccc2-c1ccc(Cl)cc1 [6-(p-Chlorophenyl)-3,4-dihydro-1-methylpyrrolo[1,2-a]pyrazine] | 0.35 | 10 | – | – | – | –
3 | CC1=NCCn2c1ccc2-c1ccc(OC2CCCC2)cc1 [6-[p-(Cyclopentyloxy)phenyl]-3,4-dihydro-1-methylpyrrolo[1,2-a]pyrazine] | 0.01 | < 0.001 | 38 | 67 | 56 | 33
4 | COc1ccc2c(c1)CCc1cc3n(c1-2)CCN=C3C [5,6,10,11-Tetrahydro-3-methoxy-8-methyl-benzo[g]pyrazino[1,2-a]indole] | 0.0008 | > 1 | 5 | 28 | 87 | 86
5 | CC1=NCCn2c1cc1c2-c2ccc(C)cc2CC1 [5,6,10,11-tetrahydro-3,8-dimethylbenzo[g]pyrazino[1,2-a]indole] | 0.002 | > 1 | 17 | 43 | 96 | 82
6 | CC1=NCCn2c1ccc2-c1ccc(O[C@@H]2C[C@H]3CC[C@@H]2C3)cc1 (relative stereo) [3,4-Dihydro-1-methyl-6-[p-(2-exonorbornyloxy)phenyl]pyrrolo[1,2-a]pyrazine] | 0.02 | 0.003 | 51 | 45 | 10 | 11
7 | CC1=NCCn2c1cc1c2-c2ccc(Cl)cc2CC1 [3-Chloro-5,6,10,11-tetrahydro-8-methylbenzo[g]pyrazino[1,2-a]indole] | 0.01 | > 1 | 20 | 42 | 96 | 93
8 | CC1=NCCn2c1ccc2-c1ccccc1 [3,4-Dihydro-1-methyl-6-phenylpyrrolo[1,2-a]pyrazine] | 0.3 | > 1 | – | – | – | –
9 | COc1ccc(-c2ccc3n2CCN=C3C)cc1 [3,4-Dihydro-6-(p-methoxyphenyl)-1-methylpyrrolo[1,2-a]pyrazine] | 0.05 | > 1 | – | – | – | –
10 | CC1=NCCn2c1cc1c2-c2ccc(OC3CCCC3)cc2CC1 [3-cyclopentyloxy-5,6,10,11-tetrahydro-8-methylbenzo[g]pyrazino[1,2-a]indole] | 0.001 | 0.007 | 8 | 13 | 50 | 45
11 | CC1NCCn2c1cc1c2-c2ccccc2CC1 (stereo not shown) [5,6,8,9,10,11-Hexahydro-8-methylbenzo[g]pyrazino[1,2-a]indole] | 0.09 | > 1 | 55 | 69 | 78 | 95
12 | CC1=NCCn2c1cc1c2-c2ccccc2CC1 [5,6,10,11-Tetrahydro-8-methylbenzo[g]pyrazino[1,2-a]indole] | 0.03 | > 1 | 47 | 48 | 81 | 87
13 | CC1=NCCn2c1cc1c2-c2ccc(OC(C)C)cc2CC1 [5,6,10,11-tetrahydro-3-isopropoxy-8-methylbenzo[g]pyrazino[1,2-a]indole] | 0.0004 | 0.014 | 10 | 8 | 75 | 60
14 | CC1=NCCn2cc(-c3ccccc3)cc21 [3,4-Dihydro-1-methyl-7-phenylpyrrolo[1,2-a]pyrazine] | 0.09 | > 1 | – | – | – | –
